Data: publication PMC8742467, “Therapeutical interference with the epigenetic landscape of germ cell tumors: a comparative drug study and new mechanistical insights” (Clinical Epigenetics, 2022)

Tests used:
[1] = system: histone modifications in 2102EP cells; experiment: Mass spectrometry analysis of histone modifications (Mod Spec); assay type: cell-based, Human
Experimental: 2102EP cells were treated with the EC50 concentrations for Quisinostat, JIB-04, Chaetocin, MZ-1, LP99, PRT4165, GSK343 and DMSO as solvent control. The cells were harvested via trypsinization after 16 h. The mass spectrometric analysis of histone modifications was outsourced to the Mod Spec service by Active Motif (Carlsbad, CA, USA). Histone extraction and mass spectrometric analysis was performed as described previously. Raw data were transformed into z-scores as the input. The heatmap was generated in R using ‘pheatmap’ with default settings and provided by Active Motif.

CC (JAR) = experiment: Flow cytometry apoptosis (Annexin V/PI), CC; assay type: cell-based, Human; details: EC50, 16 h
Experimental: (§1) For Annexin V/PI staining, cells were washed with Annexin V Binding Buffer before being resuspended in 70 µl Annexin V Binding Buffer and 2.5 μl Annexin V FITC-conjugate (both Miltenyi Biotec, Bergisch Gladbach, Germany) and 15 µg PI (Sigma-Aldrich, Taufkirchen, Germany) and incubated in the dark at room temperature for 15 min. 500 µl of Annexin V Binding Buffer was added before measurement. For the cell cycle analysis, cells were washed with PBS (phosphate buffered saline), fixed by ice cold 70% ethanol and stained with 2 µg/ml PI and 200 µg/ml RNaseA (Quiagen, Hilden, Germany 100 mg/ml) in PBS shortly before every measurement. At least 5 × 10^4 cells were counted and analyzed using the MACSQuant software v 2.13.0.

GCT cells = experiment: Flow cytometry cell cycle (PI), GCT cells; assay type: cell-based, Human; details: EC50, 16 h
Experimental: as §1

2102EP-R = experiment: Flow cytometry apoptosis (Annexin V/PI), 2102EP-R; assay type: cell-based, Human; details: EC50, 16 h, compared to the parental cell line
[2] = system: phosphorylated kinase targets in 2102EP cells; experiment: Proteome Profiler Human Phospho-Kinase Array; assay type: cell-based; details: 16 h
Experimental: For the detection of phosphorylated kinase targets, the Proteome Profiler Human Phospho-Kinase Array Kit (R&D Systems, Abingdon, UK) was used according to the manufacturer’s instructions. The ChemiDoc Imaging System (Bio-Rad Laboratories, Feldkirchen, Germany) was used for detection. 2102EP cells were harvested after 16 h of treatment with the epi-drugs. Pixel density was analyzed using Fiji ImageJ 1.53c.

[3] = system: transcriptome of 2102EP cells; experiment: RNA sequencing; assay type: cell-based, Human; details: 16 h
Experimental: Transcriptome analysis has been performed as previously described at the core facility ‘Genomics & Transcriptomics’ (Prof. Dr. Karl Köhrer, Biomedical Research Center, Heinrich Heine University, Düsseldorf, Germany) and has been publicly shared via GEO (https://www.ncbi.nlm.nih.gov/geo/, GSE189472). RNA samples were quantified and measured as previously described. Statistical analyses were performed using the ‘Differential Expression in two groups’ tool (version 1.02) (Qiagen) and the resulting p values were corrected for multiple testing by false discovery rate (FDR). Accompanying PCA and heatmap were generated using Qlucore Omics Explorer 3.7 (Qlucore AB, Lund, Sweden). Values of solvent controls wereaveraged from the studies GSE189472, GSE190792 and GSE190022 [95].

GCT cell lines = experiment: XTT cell viability assay, GCT cell lines (pre-screen / summary); assay type: cell-based, Human; details: first pre-screen, XTT; read-out: EC50
Experimental: The […] (XTT) assays were performed as described previously. In summary, for GCT and fibroblast cell lines 5 × 10^3 cells (3 × 10^3 for UC, PCa and RCC cell lines) per 96-well were seeded and different drug concentrations (see Additional file 2: Fig. S2, Additional file 3: Fig. S3) or corresponding solvents were added to the cells the following day. For drug details see Additional file 12: Table S2 C. Each condition was analyzed in four technical replicates and EC50 values were calculated by GraphPad Prism v8.

YST (GCT72) = experiment: Flow cytometry apoptosis (Annexin V/PI), YST; assay type: cell-based, Human; details: EC50, 16 h
Experimental: as §1

[4] = 2102EP cells, Mod Spec raw data
[5] = sorted data log2>±1.5, FDR p<0.05

Question: Which results are given for Cc1cc(=O)n(C)c2cc(N3C(=O)CC[C@H](NS(=O)(=O)CC(C)C)[C@H]3c3ccc(Cl)cc3)ccc12 [LP99]?
Answer: H3R2UN: K4ME2, % of peptide pool [1, 4]: 0.1607%; H3R2UN: K4ME3, % of peptide pool [1, 4]: 0.06122%; H3R2UN: K4UN, % of peptide pool [1, 4]: 82.3733%; H3R2UN: Q5ME1, % of peptide pool [1, 4]: 0.0589%; H3R2UN: Q5UN, % of peptide pool [1, 4]: 99.9411%; H3.1: K27AC, % of peptide pool [1, 4]: 1.848%; H3.1: K27ME1, % of peptide pool [1, 4]: 50.2872%; H3.1: K27ME2, % of peptide pool [1, 4]: 19.0002%; H3.1: K27ME3, % of peptide pool [1, 4]: 2.587%; H3.1: K27UN, % of peptide pool [1, 4]: 26.2781%; H3.1: K36AC, % of peptide pool [1, 4]: 0.1934%; H3.1: K36ME1, % of peptide pool [1, 4]: 15.1441%; H3.1: K36ME2, % of peptide pool [1, 4]: 47.7578%; H3.1: K36ME3, % of peptide pool [1, 4]: 20.1942%; H3.1: K36UN, % of peptide pool [1, 4]: 16.7105%; H3.3: K27AC, % of peptide pool [1, 4]: 4.526%; H3.3: K27M, % of peptide pool [1, 4]: 0%; H3.3: K27ME1, % of peptide pool [1, 4]: 50.6483%; H3.3: K27ME2, % of peptide pool [1, 4]: 13.3962%; H3.3: K27ME3, % of peptide pool [1, 4]: 4.205%; H3.3: K27UN, % of peptide pool [1, 4]: 27.2241%; H3.3: K36AC, % of peptide pool [1, 4]: 1.988%; H3.3: K36ME1, % of peptide pool [1, 4]: 13.5047%; H3.3: K36ME2, % of peptide pool [1, 4]: 50.9616%; H3.3: K36ME3, % of peptide pool [1, 4]: 19.8606%; H3.3: K36UN, % of peptide pool [1, 4]: 13.6847%; H4: K5AC, % of peptide pool [1, 4]: 6.718%; H4: K5UN, % of peptide pool [1, 4]: 93.2819%; H4: K8AC, % of peptide pool [1, 4]: 9.0591%; H4: K8UN, % of peptide pool [1, 4]: 90.9409%; H4: K12AC, % of peptide pool ([1]; 2102EP cells, Mod Spec raw data, histone H4 K12 acetylated): 5.085 % of peptide pool; H4: K12UN, % of peptide pool ([1]; 2102EP cells, Mod Spec raw data, histone H4 K12 unmodified): 94.9152 % of peptide pool; H4: K16AC, % of peptide pool ([1]; 2102EP cells, Mod Spec raw data, histone H4 K16 acetylated): 42.3745 % of peptide pool; H4: K16UN, % of peptide pool ([1]; 2102EP cells, Mod Spec raw data, histone H4 K16 unmodified): 57.6255 % of peptide pool; H4: K20AC, % of peptide pool ([1]; 2102EP cells, Mod Spec raw data, histone H4 K20 acetylated): 21.754 % of peptide pool; H4: K20ME2, % of peptide pool ([1]; 2102EP cells, Mod Spec raw data, histone H4 K20 dimethylated): 43.6517 % of peptide pool; H4: K20ME1, % of peptide pool ([1]; 2102EP cells, Mod Spec raw data, histone H4 K20 monomethylated): 4.449 % of peptide pool; H4: K20ME3, % of peptide pool ([1]; 2102EP cells, Mod Spec raw data, histone H4 K20 trimethylated): 1.292 % of peptide pool; H4: K20UN, % of peptide pool ([1]; 2102EP cells, Mod Spec raw data, histone H4 K20 unmodified): 28.8535 % of peptide pool; change of histone modifications of the expected mode of action (Mod Spec) ([1]; 2102EP, EC50, 16 h, vs solvent control): general decrease in histone acetylation; apoptosis induction in JAR (CC (JAR)): negligible; cell cycle phase accumulation in GCT cells (GCT cells): accumulated in the G0/G1 phase; apoptosis induction in 2102EP-R (2102EP-R): did not induce apoptosis; CREB, STAT3 and STAT5 phosphorylation and total levels of β-Catenin and HSP60 [2]: decreased; ERK1/2 phosphorylation [2]: decreased; GJD3 Log2 fold change vs. DMSO [3, 5]: 3.31; GLIPR1L1 Log2 fold change vs. DMSO [3, 5]: -3.59; GOLGA6A Log2 fold change vs. DMSO [3, 5]: -4.35; MTRNR2L8 Log2 fold change vs. DMSO [3, 5]: 3.16; NCKAP1L Log2 fold change vs. DMSO [3, 5]: -3.90; TAC1 Log2 fold change vs. DMSO [3, 5]: 3.33; A1BG Log2 fold change vs. DMSO ([3]; unsorted data): 0.41; A1CF Log2 fold change vs. DMSO ([3]; unsorted data): 1.13; A2M Log2 fold change vs. DMSO ([3]; unsorted data): -0.80; EC50 (GCT cell lines): ≤ 50 µM; apoptosis induction in GCT72 (YST (GCT72)): negligible
